Paper PMC9739180, “Discovery of a Flavonoid FM04 as a Potent Inhibitor to Reverse P-Glycoprotein-Mediated Drug Resistance in Xenografts and Improve Oral Bioavailability of Paclitaxel” (International Journal of Molecular Sciences, 2022)

How the values were obtained:
[1] = tested on: human melanoma MDA435/LCC6MDR xenograft; assay: In vivo efficacy in human melanoma MDA435/LCC6MDR xenograft; set-up: species or system Balb/c nude mice
Experimental: The treatment was given every other day for 12 times (q2d × 12) from day 0 to day 22. There were four treatment groups including (1) control: no treatment, (2) PTX alone (12 mg/kg, I.V.), (3) PTX alone (24 mg/kg, I.V.) and (4) combination treatment: FM04 (28 mg/kg, I.P.,−1 h) + PTX (12 mg/kg, I.V.).
Balb/c nude mice were subcutaneously xenografted with LCC6MDR. The treatment groups included (1) control—no treatment, (2) PTX (12 mg/kg, I.V.) alone, (3) PTX (24 mg/kg, I.V.) alone and (4) co-treatment: FM04 (28 mg/kg, I.P.) was injected 1 hr prior to PTX (12 mg/kg, I.V.). (A) tumor volume and (B) body weight were monitored throughout the treatment. The treatment was given to mice every other day for 12 times (q2d × 12) and indicated as an arrow. […] (C) Tumor-inhibition % on day 34 and tumor-doubling time after each treatment were determined. Number of animal deaths was monitored during the treatment. For the tumor volume at each time point, statistical analysis was conducted by one-way-ANOVA between co-treatment group and PTX alone treatment, * p < 0.05. /: not applicable.
The LCC6MDR tumor xenograft model was studied previously in [24]. Female Balb/c nude mice (4–6 week-old) were subcutaneously inoculated with 5 × 10^7cells of P-gp overexpressing LCC6MDR and allowed to develop tumor. Treatment began when a solid tumor of 150–200 mm^3 was formed. Tumor-bearing mice were randomized into four groups with 7–8 mice in each group: (1) control group—no treatment, (2) PTX alone (12 mg/kg, I.V.), (3) PTX alone (24 mg/kg, I.V.) and (4) co-treatment: FM04 (28 mg/kg, I.P.) was injected 1 hr before PTX (12 mg/kg, I.V.) administration. Tumor growth was measured by an electronic caliper on the injection day and the tumor volume was calculated using the following formula: Estimated tumor volume (mm^3)=l×w^2/2

CYP2C8 and CYP3A4 = assay: PTX metabolism in human liver microsomes: PTX level; format: in vitro ADME; settings: HLM; in the presence of NADPH, no inhibitor
Experimental: Figure 7 Mechanistic study of FM04 to increase the oral PTX absorption. (A) transepithelial permeability of PTX in Caco-2 transwell assay. When confluent monolayer of Caco2 cells was formed on the transwell, the permeability of PTX (10 μM) was studied with or without FM04 (10 μM). For apical to basolateral transport (A to B), compound was added at the apical side (donor) and samples of the medium collected at the basal side (receiver) at 0, 20, 40, 60, 80, 100 and 120 min and vice versa for basal to apical transport (B to A). The PTX level was determined using UPLC-MS/MS. The relative % of PTX was presented as mean ± standard error of mean. N = 2–3 independent experiments. Impact of FM04 on PTX metabolism. […] After incubation, the levels of PTX, metabolites 6α-hydroxpaclitaxel (6α-OHP) and p3′-hydroxpaclitaxel (p3-OHP) were determined by HPLC-MS/MS. (B) changes in PTX. (C) changes in 6α-OHP. (D) changes in p3-OHP. […]
Drug solutions of PTX and FM04 were prepared in methanol. […] PTX and PTX metabolites were immediately analyzed by UPLC-MS/MS on the same day.
[^13C6]-paclitaxel (CAS: 379688-61-6) was the internal standard (IS) and purchased from Alsachim. Fifteen microliters of 10 μg/mL internal standard (IS) was added to all samples and calibration standards for quantification. […] PTX and both metabolites were semi-quantified base on the peak area ratio of the analyte/internal standard.

[2] = tested on: human melanoma MDA435/LCC6 xenograft; assay: In vivo efficacy of oral co-administration in human melanoma MDA435/LCC6 xenograft; settings: PTX 12 mg/kg I.V., (q1d × 4) × 2 rounds
Experimental: The treatment was given daily four times and two rounds on days 0, 1, 2, 3, 6, 7, 8 and 9 [(q1d × 4) × 2 rounds].
The treatment was given to mice every day for 4 times and 2 rounds [(q1d × 4) x 2 rounds] and indicated as an arrow.
LCC6 cells at 1 × 10^6 were injected intraperitoneally (I.P.) to allow ascite development for cell adaptation in vivo. Aspirated ascite was then injected S. C. to nude mice for the development of solid tumors as stock. These solid tumors were excised and trimmed into 1 mm^3 cubes for constructing subsequent S.C. xenografts. The study begun when these xenografts were confirmed to bear a tumor at 100–120 mm^3. FM04 (22 or 45 mg/kg) was co-administered orally with PTX (40, 60, 70 or 80 mg/kg). The treatment schedule was set to once a day for four times in two cycles (q1d × 4, 2 cycles). Tumor volume and body weight changes were monitored throughout the experiment. Animals with a body weight loss > 15% during treatment for more than 3 consecutive days were considered to be treatment-induced toxicity. All animals were sacrificed on day 30. Statistical analysis was performed by using one-way ANOVA (*, p < 0.05; **, p < 0.01; ***, p < 0.001).

P-gp [3] = target: T1, P-gp (Homo sapiens, UniProt P08183); assay: Intracellular DOX accumulation assay in LCC6MDR cells
T1 sequence (P08183 whole entry): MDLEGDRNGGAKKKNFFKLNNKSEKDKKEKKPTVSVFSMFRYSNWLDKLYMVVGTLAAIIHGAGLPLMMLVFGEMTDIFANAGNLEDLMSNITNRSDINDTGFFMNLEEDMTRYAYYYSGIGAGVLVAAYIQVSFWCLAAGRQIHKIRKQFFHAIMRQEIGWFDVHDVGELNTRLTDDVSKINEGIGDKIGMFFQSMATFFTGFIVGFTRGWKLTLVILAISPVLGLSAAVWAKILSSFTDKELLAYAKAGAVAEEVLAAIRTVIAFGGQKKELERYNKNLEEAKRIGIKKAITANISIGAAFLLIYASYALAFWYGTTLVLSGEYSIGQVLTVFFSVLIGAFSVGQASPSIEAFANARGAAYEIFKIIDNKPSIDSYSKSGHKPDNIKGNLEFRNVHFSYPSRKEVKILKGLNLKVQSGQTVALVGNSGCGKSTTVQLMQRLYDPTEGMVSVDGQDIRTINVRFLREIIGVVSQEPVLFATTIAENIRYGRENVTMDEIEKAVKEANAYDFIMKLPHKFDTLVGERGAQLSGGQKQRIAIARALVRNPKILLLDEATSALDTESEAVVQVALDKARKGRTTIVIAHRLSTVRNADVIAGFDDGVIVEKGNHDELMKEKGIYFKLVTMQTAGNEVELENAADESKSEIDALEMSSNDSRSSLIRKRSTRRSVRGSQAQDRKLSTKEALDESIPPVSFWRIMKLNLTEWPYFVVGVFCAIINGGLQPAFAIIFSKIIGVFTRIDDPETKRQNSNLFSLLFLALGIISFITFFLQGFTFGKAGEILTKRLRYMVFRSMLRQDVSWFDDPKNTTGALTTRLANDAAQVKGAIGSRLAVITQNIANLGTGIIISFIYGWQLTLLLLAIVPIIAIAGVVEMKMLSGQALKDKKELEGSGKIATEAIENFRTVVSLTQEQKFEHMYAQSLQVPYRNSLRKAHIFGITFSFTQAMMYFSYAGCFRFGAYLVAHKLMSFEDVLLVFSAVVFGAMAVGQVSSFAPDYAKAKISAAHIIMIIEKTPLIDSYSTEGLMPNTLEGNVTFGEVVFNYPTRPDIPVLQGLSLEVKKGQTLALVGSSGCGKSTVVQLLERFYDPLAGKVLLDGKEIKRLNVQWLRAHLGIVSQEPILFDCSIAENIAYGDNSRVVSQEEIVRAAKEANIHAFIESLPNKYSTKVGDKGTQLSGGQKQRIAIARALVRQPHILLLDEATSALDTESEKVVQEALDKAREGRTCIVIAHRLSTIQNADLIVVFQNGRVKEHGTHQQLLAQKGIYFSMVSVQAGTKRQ

P-gp [4] = target: T1, P-gp; assay: Intracellular FM04 level in LCC6MDR and LCC6 cells (P-gp transport substrate test); format: cell-based; set-up: expressed in transfected cells; host or cells: MDA435/LCC6MDR (human melanoma); settings: 1-10 µM, LCC6MDR vs LCC6
Experimental: N = 2–3 independent experiments. […] After incubation, the cells were lysed and spun down. […] N = 2–6 independent experiments. […] A 1% DMSO was a solvent control. […] N = 2–3 independent experiments.
P-gp is a transporter with broad substrate specificity. To explore whether FM04 can be pumped by P-gp and work as a competitive inhibitor to prevent the drug substrate from binding, the following experiment was performed. The intracellular level of FM04 was compared in P-gp overexpressing LCC6MDR cells and non-P-gp parental LCC6 cells after its treatment.

Row | Structure (SMILES) | Tumor doubling time (Td) ([1]; PTX 12 mg/kg I.V., q2d × 12) [days] | fold reduction in tumor volume ([1]; PTX 24 mg/kg I.V.) [fold] | weight loss ([1]; PTX 24 mg/kg I.V.) [%] | No. of animal death ([1]; PTX 24 mg/kg I.V., q2d × 12) | reduction of PTX level (CYP2C8 and CYP3A4) [%] | Tumor inhibition on day 31 (%) [2] [%] | EC50 (P-gp [3]) [nM] | Transport substrate of P-gp (P-gp [4])
1 | CC(=O)O[C@H]1C(=O)[C@@]2(C)[C@H]([C@H](OC(=O)c3ccccc3)[C@]3(O)C[C@H](OC(=O)[C@H](O)[C@@H](NC(=O)c4ccccc4)c4ccccc4)C(C)=C1C3(C)C)[C@]1(OC(C)=O)CO[C@@H]1C[C@@H]2O [PTX, paclitaxel] | 10 | 2.5 | > 15 | 4 out of 6 | 50 | 97 |  | 
2 | O=c1cc(-c2ccc(OCCOCCNCc3ccccc3)cc2)oc2ccccc12 [FM04, 2-(4-(2-(2-(benzylamino)ethoxy)ethoxy)phenyl)-4H-chromen-4-one] |  |  |  |  |  |  | 64 | not a transport substrate of P-gp
